# Legend:
# CCRF-CEM = test: NCI-60 SRB screen; type: cell-based; details: single dose 10^−5 M
# HL-60(TB) = test: NCI-60 SRB screen; type: cell-based, human; details: HL-60 (TB); single dose 10^−5 M
# K-562 = test: NCI-60 SRB screen; type: cell-based, human; details: K-562; single dose 10^−5 M
# MOLT-4 = test: NCI-60 SRB screen; type: cell-based; details: MOLT-4; single dose 10^−5 M
# RPMI-8226 = test: NCI-60 SRB screen; type: cell-based; details: RPMI-8226; single dose 10^−5 M
# SR = test: NCI-60 SRB screen; type: cell-based; details: single dose 10^−5 M
# A549/ATCC = test: NCI-60 SRB screen; type: cell-based, human; details: single dose 10^−5 M
# EKVX = test: NCI-60 SRB screen; type: cell-based, human; details: single dose 10^−5 M
# HOP-62 = test: NCI-60 SRB screen; type: cell-based, human; details: HOP-62; single dose 10^−5 M
# HOP-92 = test: NCI-60 SRB screen; type: cell-based, human; details: HOP-92; single dose 10^−5 M
# NCI-H226 = test: NCI-60 SRB screen; type: cell-based, human; details: NCI-H226; single dose 10^−5 M
# NCI-H23 = test: NCI-60 SRB screen; type: cell-based, human; details: NCI-H23; single dose 10^−5 M
# NCI-H322M = test: NCI-60 SRB screen; type: cell-based, human; details: single dose 10^−5 M
# NCI-H460 = test: NCI-60 SRB screen; type: cell-based, human; details: NCI-H460; single dose 10^−5 M
# NCI-H522 = test: NCI-60 SRB screen; type: cell-based, human; details: NCI-H522; single dose 10^−5 M
# COLO 205 = test: NCI-60 SRB screen; type: cell-based, human; details: COLO 205; single dose 10^−5 M
# HCC-2998 = test: NCI-60 SRB screen; type: cell-based, human; details: HCC-2998; single dose 10^−5 M
# HCT-116 = test: NCI-60 SRB screen; type: cell-based, human; details: HCT-116; single dose 10^−5 M
# HCT-15 = test: NCI-60 SRB screen; type: cell-based, human; details: HCT-15; single dose 10^−5 M
# HT-29 = test: NCI-60 SRB screen; type: cell-based; details: HT-29; single dose 10^−5 M
# KM12 = test: NCI-60 SRB screen; type: cell-based, human; details: KM12; single dose 10^−5 M
# SW-620 = test: NCI-60 SRB screen; type: cell-based; details: SW-620; single dose 10^−5 M
# SF-268 = test: NCI-60 SRB screen; type: cell-based, human; details: SF-268; single dose 10^−5 M
# SF-295 = test: NCI-60 SRB screen; type: cell-based, human; details: SF-295; single dose 10^−5 M
# SF-539 = test: NCI-60 SRB screen; type: cell-based, human; details: SF-539; single dose 10^−5 M
# SNB-19 = test: NCI-60 SRB screen; type: cell-based; details: SNB-19; single dose 10^−5 M
# SNB-75 = test: NCI-60 SRB screen; type: cell-based, human; details: SNB-75; single dose 10^−5 M
# U251 = test: NCI-60 SRB screen; type: cell-based, human; details: U251; single dose 10^−5 M
# LOX IMVI = test: NCI-60 SRB screen; type: cell-based, human; details: single dose 10^−5 M
# MALME-3M = test: NCI-60 SRB screen; type: cell-based, human; details: single dose 10^−5 M
# M14 = test: NCI-60 SRB screen; type: cell-based, human; details: M14; single dose 10^−5 M
# MDA-MB-435 = test: NCI-60 SRB screen; type: cell-based; details: MDA-MB435; single dose 10^−5 M
# SK-MEL-2 = test: NCI-60 SRB screen; type: cell-based, human; details: SK-MEL-2; single dose 10^−5 M
# SK-MEL-28 = test: NCI-60 SRB screen; type: cell-based; details: SK-MEL-28; single dose 10^−5 M
# SK-MEL-5 = test: NCI-60 SRB screen; type: cell-based, human; details: SK-MEL-5; single dose 10^−5 M
# UACC-257 = test: NCI-60 SRB screen; type: cell-based, human; details: UACC-275 (so in the source); single dose 10^−5 M
# UACC-62 = test: NCI-60 SRB screen; type: cell-based, human; details: UACC-62; single dose 10^−5 M
# IGROV1 = test: NCI-60 SRB screen; type: cell-based, human; details: IGROV1; single dose 10^−5 M
# OVCAR-3 = test: NCI-60 SRB screen; type: cell-based, human; details: OVCAR-3; single dose 10^−5 M
# OVCAR-4 = test: NCI-60 SRB screen; type: cell-based, human; details: OVCAR-4; single dose 10^−5 M
# OVCAR-5 = test: NCI-60 SRB screen; type: cell-based, human; details: OVCAR-5; single dose 10^−5 M
# OVCAR-8 = test: NCI-60 SRB screen; type: cell-based, human; details: OVCAR-8; single dose 10^−5 M
# NCI/ADR-RES = test: NCI-60 SRB screen; type: cell-based, human; details: single dose 10^−5 M
# SK-OV-3 = test: NCI-60 SRB screen; type: cell-based, human; details: SK-OV-3; single dose 10^−5 M
# 786-0 = test: NCI-60 SRB screen; type: cell-based; details: 786-0; single dose 10^−5 M
# A498 = test: NCI-60 SRB screen; type: cell-based, human; details: A498; single dose 10^−5 M
# ACHN = test: NCI-60 SRB screen; type: cell-based; details: single dose 10^−5 M
# CAKI-1 = test: NCI-60 SRB screen; type: cell-based, human; details: CAKI-1; single dose 10^−5 M
# RXF 393 = test: NCI-60 SRB screen; type: cell-based, human; details: RXF 393; single dose 10^−5 M
# SN12C = test: NCI-60 SRB screen; type: cell-based, human; details: SN 12 C; single dose 10^−5 M
# TK-10 = test: NCI-60 SRB screen; type: cell-based, human; details: TK-10; single dose 10^−5 M
# UO-31 = test: NCI-60 SRB screen; type: cell-based, human; details: UO-31; single dose 10^−5 M
# [1] = system: panel of 60 cancer cell lines; test: NCI-60 SRB screen, mean or range over the panel; type: cell-based, human; details: mean over the cell lines; single dose 10^−5 M
smiles,measurement,setting,value
COc1ccc(C2NC(=O)Cc3c2sc2c(F)cccc32)c(OC)c1 (centres unmarked) [Compound 3a],Growth inhibition (%),CCRF-CEM,−5.88%
same,Growth inhibition (%),HL-60(TB),−7.79%
same,Growth inhibition (%),K-562,12.84%
same,Growth inhibition (%),MOLT-4,2.64%
same,Growth inhibition (%),RPMI-8226,−2.54%
same,Growth inhibition (%),SR,28.66%
same,Growth inhibition (%),A549/ATCC,−10.00%
same,Growth inhibition (%),EKVX,7.10%
same,Growth inhibition (%),HOP-62,11.63%
same,Growth inhibition (%),HOP-92,2.88%
same,Growth inhibition (%),NCI-H226,13.11%
same,Growth inhibition (%),NCI-H23,0.15%
same,Growth inhibition (%),NCI-H322M,−3.18%
same,Growth inhibition (%),NCI-H460,2.47%
same,Growth inhibition (%),NCI-H522,4.48%
same,Growth inhibition (%),COLO 205,−16.49%
same,Growth inhibition (%),HCC-2998,−15.27%
same,Growth inhibition (%),HCT-116,−0.50%
same,Growth inhibition (%),HCT-15,−3.42%
same,Growth inhibition (%),HT-29,−7.86%
same,Growth inhibition (%),KM12,7.40%
same,Growth inhibition (%),SW-620,3.98%
same,Growth inhibition (%),SF-268,8.45%
same,Growth inhibition (%),SF-295,−2.52%
same,Growth inhibition (%),SF-539,11.49%
same,Growth inhibition (%),SNB-19,1.20%
same,Growth inhibition (%),SNB-75,17.27%
same,Growth inhibition (%),U251,2.07%
same,Growth inhibition (%),LOX IMVI,5.88%
same,Growth inhibition (%),MALME-3M,15.80%
same,Growth inhibition (%),M14,4.96%
same,Growth inhibition (%),MDA-MB-435,9.40%
same,Growth inhibition (%),SK-MEL-2,−25.13%
same,Growth inhibition (%),SK-MEL-28,−11.36%
same,Growth inhibition (%),SK-MEL-5,2.83%
same,Growth inhibition (%),UACC-257,−6.31%
same,Growth inhibition (%),UACC-62,10.62%
same,Growth inhibition (%),IGROV1,8.40%
same,Growth inhibition (%),OVCAR-3,−0.33%
same,Growth inhibition (%),OVCAR-4,3.35%
same,Growth inhibition (%),OVCAR-5,−3.20%
same,Growth inhibition (%),OVCAR-8,−3.27%
same,Growth inhibition (%),NCI/ADR-RES,−2.37%
same,Growth inhibition (%),SK-OV-3,−0.85%
same,Growth inhibition (%),786-0,−7.41%
same,Growth inhibition (%),A498,9.33%
same,Growth inhibition (%),ACHN,1.30%
same,Growth inhibition (%),CAKI-1,23.33%
same,Growth inhibition (%),RXF 393,−2.63%
same,Growth inhibition (%),SN12C,−0.49%
same,Growth inhibition (%),TK-10,−29.42%
same,Growth inhibition (%),UO-31,32.68%
same,Mean growth inhibition (%),[1],6.67%
